Source: US5770595A, “Oxime substituted therapeutic compounds” (Cell Therapeutics, Inc., priority 1994, dated 1998)

Key:
[1] = test system: MCF-7, Hurdlich, RAS and NIH-3T3 cells; assay: cytotoxicity on several cell lines (BCECF viability); type: cell-based; details: 24 hours; FIG. 13
Protocol: Each inventive compound is investigated for cytotoxicity to determine appropriate doses for biological activity assays and to prevent cytotoxic reactions in in vitro assays when characterizing activity. Cells (e.g., NIH-3T3, Ras transformed 3T3 cells, malignant melanoma LD2 cells, etc.) are added to microtiter plates and drug is added about two days after plating. Cell viability is determined using a fluorescent viability slain (e.g., 2',7'-bis-(2-carboroxyethyl)-5-(and -6)-carboxyfluorescein acetoxymethyl ester, BCECF excitation 488 nm and emission 525 nm) 24, 48 or 72 hours after addition of the drug.
1522 is not cytotoxic to several cell lines. The cells lines used were MCF-7 a human breast cancer-derived line, Hurdlich cells a human stromal derived line, RAS a codon-12 transformed malignant murine line, and NIH-3T3 a non-Ras transformed parent line of RAS. The cells were treated with various concentrations of drug, and 24 hours later, stained for viability using BCECF and analyzed for fluorescent die uptake (indicating viable cells) using a fluorescence plate reader.

[2] = test system: murine peritoneal macrophages; assay: IL-1α release from LPS-stimulated murine peritoneal macrophages; type: cell-based; details: 0.25 mM, LPS 10 μg/ml
Protocol: This example illustrates the ability of inventive compound no. 1521 to inhibit IL-1α release from murine peritoneal macrophages when stimulated with LPS. This assay is a model for septic shock. Macrophages (10^5) were treated with LPS at 10 μg/ml in RPMI media containing 10% fetal calf serum. Supernatants were assayed for IL-1α by an ELISA technique at various times following LPS stimulation. The cells were treated one hour prior to LPS stimulation with 0.25 mM 1521.

[3] = test system: U937 cells / activated human umbilical vein endothelial cells (HUVEC); assay: adhesion of U937 cells to TNF-activated HUVEC; type: cell-based; details: human TNF 20 ng/ml, 12 hours
Protocol: Another assay measures the effects of drug to inhibit adhesion of U937 cells to TNF-activated HUVEC cells In this experiment, HUVEC cells are induced with human TNF-α (20 ng/ml) and drug at varying concentrations for 14-16 hrs. U937 cells (a human monocyte cell line) are incubated and labeled with BCECF (10 μg/ml), a fluorescent dye. The U937 cell preparation (2.5×10^4 cells per well) is layered on top of the activated HUVEC cells. The cells are reverse spun to remove partially adhering and nonadhering U937 cell. The adherent U937 cells are measured by fluorescence on a fluorescent plate reader.
1521 to inhibit adhesion of U937 cells to activated human umbilical vein endothelial cells (HUVEC). HUVEC cells were activated with 20 ng/ml of human TNF for 12 hours. Compound no. 1521 was added to samples one hour prior to adding TNF. U937 cells preloaded with a fluorescent dye were added to the HUVEC cells and adhesion measured after washing. Compound no. […] Background adhesion of U937 cells to non-activated HUVEC is shown as a dashed line.

L929 cells = assay: TNF-α-mediated cytotoxicity in L929 cells; type: cell-based, murine; details: human TNF-α 300 pg/ml; FIG. 9
Protocol: An inventive compound can be assayed for activity protecting TNF-mediated cytotoxicity. In this assay, L929 murine fibroblast cells (10^4 cells per well) are incubated with either compounds at varying doses and media control for two hrs. […] The cells plus (or minus) drug plus TNF were incubated for 40 hrs at 37° C. The media is removed and replaced with fresh media containing 2% serum and 10 μg/ml of BCECF fluorescent dye and incubated for 30 min. The fluorescent dye-containing media is removed and replaced with PBS (phosphate buffered saline) and each well was assayed for fluorescence.
This assay is a model for septic shock. L929 cells (10^5) were treated with human TNF-α at 300 pg/ml in RPMI media containing 10% fetal calf serum with or without compound no. One day later, the cells were stained for viability using the fluorescent dye BCECF and fluorescence of the samples was analyzed using a Milipore plate reader.

SMILES	cytotoxicity (viability by BCECF) [1]	inhibition of IL-1α release [2]	adhesion of U937 cells to activated HUVEC [3]	protection of L929 cells from TNF-induced cytotoxicity (L929 cells)
CON=C(C)CCCCn1c(=O)c2c(ncn2C)n(C)c1=O [Compound no. 1522]	non-toxic at therapeutic concentrations	–	–	–
CC(CCCCn1c(=O)c2c(ncn2C)n(C)c1=O)=NO [Compound no. 1521]	–	inhibited IL-1α release	reduced adhesion	inhibited TNF-induced cytotoxicity in a dose dependent manner
